Measured values published in patent publication US12331040B2 (Karyopharm Therapeutics Inc., priority 2013, dated 2025).

How the values were obtained:
[1] = tested on: U2OS cells; experiment: Western blots of autophagy, stress and cell cycle markers in U2OS cells; type: cell-based, human; conditions: 1 μM or 10 μM, 48 hours, Western blot
Description: U2OS cells were plated in a 6-well plate overnight. The next day, the cells were treated with 1 μM or 10 μM Compound 585 for 48 hours, then collected and lysed in RIPA buffer. The lysate was run on SDS-PAGE and Western blots of PAK4, PUMA, CHOP, p21, cyclin D, MLH1, p-AMPK, AMPK and LC3 were performed.

[2] = tested on: PAK4 signalling in IMR-90 cells; experiment: Western blots of PAK4 signalling in normal cells (IMR-90); type: cell-based; conditions: IMR-90 normal cell line; 72-hour treatment, increasing concentrations; Western blot
Description: Normal human dermal fibroblasts (NHDF) and normal lung cells (IMR-90) were treated with Compound 585 for 72 hours, at which time the cells were lysed in RIPA buffer. The lysates were run on SDS-PAGE and Western blots of phospho-PAK4, PAK4, phospho-cofilin, cofilin, phospho-β-catenin, β-catenin, PARP and caspase-3 were performed.

[3] = tested on: U2OS cells; experiment: Staining of β-catenin, cofilin and F-actin in fixed U2OS cells; type: cell-based, human; conditions: 1 μM, 48 hours
Description: U2OS cells were grown on coverslips and treated with DMSO or 1 μM Compound 585 for 48 hours, at which time the cells were fixed and stained. The cells were labeled with phospho- or total β-catenin antibodies; phospho- or total cofilin antibodies; or ALEXA-FLUORO 488 phalloidin. Both phospho- and total β-catenin were reduced by treatment with Compound 585. Both phospho- and total cofilin were reduced by treatment with Compound 585. ALEXA-FLUORO 488 phalloidin was used to stain F-actin.

[4] = tested on: U2OS cells; experiment: BrdU incorporation and cell cycle analysis by flow cytometry in U2OS cells; type: cell-based, human; conditions: 1 μM, BrdU/7-AAD flow cytometry
Description: U2OS cells were treated with DMSO or 1 μM Compound 585 for one, two or three days. At each time point, cells were treated with 10 μM BrdU for 2 hours, and then collected by trypsinization. Cells were subsequently washed, fixed and stained for BrdU and total DNA (7-AAD). BrdU incorporation and cell cycle analysis was performed using flow cytometry on a BD Fortessa Analyzer. Data was then analyzed using FCS Express 4 software.

[5] = tested on: normal cells; experiment: 72-hour MTT cell proliferation assay, summary over the normal cell lines tested; type: cell-based; conditions: normal cells (n=10): NHDF, 3T3, NHEK, IMR-90, PBMC, ARPE-19, HS738.st, WI-38, MRC-5, RWPE-1
Description: The MTT cell proliferation assay was used to study the cytotoxic properties of the compounds. The assay was performed according to the method described by Roche Molecular Biochemicals, with minor modifications. The assay is based on the cleavage of the tetrazolium salt, MTT, in the presence of an electron-coupling reagent. The water-insoluble formazan salt produced must be solubilized in an additional step. Cells grown in a 96-well tissue culture plate were incubated with the MTT solution for approximately 4 hours. After this incubation period, a water-insoluble formazan dye formed. After solubilization, the formazan dye was quantitated using a scanning multi-well spectrophotometer (ELISA reader). […] The cells were seeded at 5,000-10,000 cells in each well of 96-well plate in 100 μL of fresh culture medium and were allowed to attach overnight. The stock solutions of the compounds were diluted in 100 μL cell culture medium to obtain eight concentrations of each test compound, ranging from 1 nM to 30 μM. […] All optical densities were measured at 490 nm using a Vmax Kinetic Microplate Reader (Molecular Devices). In most cases, the assay was performed in duplicate and the results were presented as a mean percent inhibition to the negative control±SE. The following formula was used to calculate the percent of inhibition: Inhibition (%)=(1−(ODo/OD))×100. […]

[6] = tested on: MDA-MB-468 xenografts; experiment: MDA-MB-468 (triple negative breast cancer) xenograft in CB-17 SCID mice; type: in vivo, mouse; conditions: for mean tumor volume of MDA-MB-468 xenografts: CB-17 SCID mice, 15 mg/kg PO once daily Monday through Friday; for toxicity (side effects, weight loss): MDA-MB-468 xenograft model, minimal or no side effects or weight loss up to 200 mg/kg daily dose
Description: The oncological impact of Compound 504 and Compound 510 were tested using a MDA-MB-468 (triple negative breast cancer) xenograft model in CB-17 SCID mice. MDA-MB-468 (ATCC #HTB-102) breast adenocarcinoma cells were obtained from ATCC. The cells were grown in high glucose DMEM supplemented with 10% fetal bovine serum, 1% penicillin and streptomycin, and 2 mM L-glutamine. Cells were sub-cultured by dilution at a ratio of 1:4. MDA-MB-468 cells were harvested by trypsinization and counted using a hemocytometer. Cells were resuspended in PBS at a 4×10^8 cells per mL. Cells were placed on ice and mixed with an equal volume of Matrigel (BD Biosciences CB-40234). Thirty-two (32) CB-17 SCID mice were inoculated sub-cutaneously in the left flank with 4×10^7 MDA-MB-468 cells. Treatment was initiated when the tumors reached a mean volume of about 100 mm^3. Mice were allocated to four (4) groups of eight (8) mice such that mean tumor volume was about 100 mm^3 in each group. Mice were treated with vehicle, standard of care/positive control drug (paclitaxel), Compound 504 or Compound 510. Compound 504 (15 mg/kg) and Compound 510 (15 mg/kg) were given orally (PO) once daily on Monday through Friday each week. Animals' weights and condition were recorded daily, and tumors were measured on Mondays, Wednesdays, and Fridays.

SMILES	cell cycle proteins, p21 and cyclin D1 [1]	markers of stress response and autophagy (AMPK phosphorylation, short form of LC3 lysosome marker) [1]	effect on PAK4 signalling (phospho-PAK4, PAK4, phospho-cofilin, cofilin, phospho-β-catenin, β-catenin, PARP, caspase 3) [2]	stress fiber formation (F-actin, phalloidin) [3]	phospho- and total cofilin ([3]; antibody staining)	phospho- and total β-catenin ([3]; antibody staining)	cell cycle changes: Sub-G1 phase [4]	cell cycle changes: S phase and G2 phase ([4]; at 48-72 hours)	inhibition of normal cells [5]	mean tumor volume of MDA-MB-468 xenografts [6]	toxicity (side effects, weight loss) [6]
Nc1ccc(/C=C/C(=O)NCc2cc3cc(-c4ccc(C(=O)N5CCC(F)(F)CC5)cn4)cc(C(F)(F)F)c3o2)cn1 [Compound 585, (E)-3-(6-aminopyridin-3-yl)-N-((5-(5-(4,4-difluoropiperidine-1-carbonyl)pyridin-2-yl)-7-(trifluoromethyl)benzofuran-2-yl)methyl)acrylamide]	reduced	induced markers of stress response and autophagy	little to no effect	increase in stress fiber formation	reduced	reduced	started to appear around 48-72 hours	loss of S phase and increase in G2 phase	did not inhibit		
Nc1ccc(/C=C/C(=O)NCc2cc3cc(-c4ccc(S(=O)(=O)N5CCOCC5)cc4)cc(Cl)c3o2)cn1 [Compound 504, (E)-3-(6-Aminopyridin-3-yl)-N-((7-chloro-5-(4-(morpholinosulfonyl)phenyl)benzofuran-2-yl)methyl)acrylamide]										tumor growth inhibition	without major toxicity
Nc1ccc(/C=C/C(=O)NCc2cc3cc(-c4ccc(C(=O)N5CCOCC5)cc4)cc(C(F)(F)F)c3o2)cn1 [Compound 510, (E)-3-(6-aminopyridin-3-yl)-N-((5-(4-(morpholine-4-carbonyl)phenyl)-7-(trifluoromethyl)benzofuran-2-yl)methyl)acrylamide]										tumor growth inhibition	without major toxicity
